Results from ChEMBL document CHEMBL3301562, “MMV Box screening against Plasmodium falciparum protein kinases and aminoacyl tRNA synthetases”.

Experiments:
Assay type in all cases: functional
[1] = target: T1, Cdk-related protein kinase 6 (Plasmodium falciparum, UniProt O77239); test: Final concentrations were 1.5 uM ATP, 5 mM MnCl2, and 15 ug/ml PK6 in a buffer of 100 mM Tris-HCl (pH 7.5). 50 ug/mL MBP was provided as the substrate; 10 uM staurosporine was used as a control inhibitor. Incubation time was 3 hours and 40 minutes.The catalytic activity of each kinase was considered proportional to ATP consumed, as determined from measurements of residual [ATP] with the luciferase-based reagent Kinase-Glo (Promega) following incubation. Luminescence (proportional to residual [ATP]) was measured on the plate readers FLx800 (BioTek Instruments, Winooski, VT, USA) and MicroBeta2.
T1 sequence (O77239 whole entry): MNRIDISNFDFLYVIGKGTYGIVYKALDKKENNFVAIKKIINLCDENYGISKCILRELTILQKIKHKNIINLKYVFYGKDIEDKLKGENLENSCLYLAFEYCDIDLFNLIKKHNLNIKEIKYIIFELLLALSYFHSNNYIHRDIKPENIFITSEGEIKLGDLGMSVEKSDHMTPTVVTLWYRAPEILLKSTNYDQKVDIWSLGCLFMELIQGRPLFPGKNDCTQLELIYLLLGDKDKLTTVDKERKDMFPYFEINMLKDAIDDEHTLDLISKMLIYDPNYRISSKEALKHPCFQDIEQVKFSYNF

[2] = target: T2, Putative uncharacterized protein pk7 (Plasmodium falciparum, UniProt O96214); test: Final concentrations were 1 uM ATP, 2 mM DTT, 20 mM MgCl2, 2 mM MnCl2, 0.01% BSA, and 6 ug/ml PK7, in a buffer of 20 mM Tris-HCl (pH 7.5). The enzyme itself was the only substrate present (since autophosphorylation occurs); 100 uM 1NA-PP1 was used as a control inhibitor. Incubation time was 3 hours.
T2 sequence (O96214 whole entry): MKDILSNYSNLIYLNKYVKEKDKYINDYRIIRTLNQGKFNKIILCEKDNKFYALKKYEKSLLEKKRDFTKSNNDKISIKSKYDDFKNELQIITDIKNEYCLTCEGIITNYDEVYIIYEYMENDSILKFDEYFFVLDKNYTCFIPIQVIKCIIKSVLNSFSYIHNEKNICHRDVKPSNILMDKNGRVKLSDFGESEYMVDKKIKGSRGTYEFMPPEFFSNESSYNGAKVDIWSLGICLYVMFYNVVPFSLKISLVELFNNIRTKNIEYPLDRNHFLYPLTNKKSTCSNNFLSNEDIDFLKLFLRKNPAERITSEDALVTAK

[3] = target: T3, Mitogen-activated protein kinase (Plasmodium falciparum, UniProt Q25917); test: Final concentrations were 1 uM ATP, 0.5 mM DTT, 1 mM MgCl2, 0.5 mg/mL BSA, and 10 ug/ml MAP2 in a buffer of 50 mM HEPES (pH 7.0). 0.5 mg/mL histone III-S served as the substrate (13); 100 uM AMP-PNP, an ATP analog, was used as a control inhibitor. Incubation time was 4 hours.
T3 sequence (Q25917 whole entry): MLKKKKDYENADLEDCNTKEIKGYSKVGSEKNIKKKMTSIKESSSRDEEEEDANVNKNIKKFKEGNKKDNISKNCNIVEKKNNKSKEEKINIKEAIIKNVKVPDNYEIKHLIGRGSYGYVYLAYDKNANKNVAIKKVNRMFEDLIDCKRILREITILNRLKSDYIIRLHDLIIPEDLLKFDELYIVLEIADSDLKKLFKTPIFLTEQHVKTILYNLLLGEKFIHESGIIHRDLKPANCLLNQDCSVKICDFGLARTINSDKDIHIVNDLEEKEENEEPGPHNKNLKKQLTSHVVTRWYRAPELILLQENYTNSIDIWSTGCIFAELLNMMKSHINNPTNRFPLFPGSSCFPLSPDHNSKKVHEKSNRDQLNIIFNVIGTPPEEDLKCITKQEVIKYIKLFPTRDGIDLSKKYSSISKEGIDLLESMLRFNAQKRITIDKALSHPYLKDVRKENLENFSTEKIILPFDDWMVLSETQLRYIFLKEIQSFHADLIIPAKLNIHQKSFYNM

[4] = target: Calcium-dependent protein kinase 1 (Plasmodium falciparum, UniProt P62344); test: MMV: CDPK1 Protein kinase inhibition assay using recombinant PfCDPK1, syntide 2 peptide substrate, ATP and KinaseGlo to measure % inhibition at 1 uM MMV box compound.
Calcium-dependent protein kinase 1, sequence (P62344 whole entry): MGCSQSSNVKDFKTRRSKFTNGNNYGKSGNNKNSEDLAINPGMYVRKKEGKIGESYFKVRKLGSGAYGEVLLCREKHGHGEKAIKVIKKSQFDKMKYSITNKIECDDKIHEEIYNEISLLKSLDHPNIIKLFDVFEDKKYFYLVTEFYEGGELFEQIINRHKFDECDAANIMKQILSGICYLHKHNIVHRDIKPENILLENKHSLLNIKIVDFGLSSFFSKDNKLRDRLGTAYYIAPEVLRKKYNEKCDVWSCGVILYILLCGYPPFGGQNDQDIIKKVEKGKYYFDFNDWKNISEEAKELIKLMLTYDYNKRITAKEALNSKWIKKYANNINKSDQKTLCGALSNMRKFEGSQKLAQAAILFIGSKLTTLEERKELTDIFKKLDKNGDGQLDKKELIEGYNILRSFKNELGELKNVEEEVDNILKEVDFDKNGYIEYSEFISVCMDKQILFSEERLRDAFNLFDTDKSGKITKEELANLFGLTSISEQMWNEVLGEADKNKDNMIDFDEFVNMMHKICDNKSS

[5] = target: T4, Calcium-dependent protein kinase 4 (Plasmodium falciparum (isolate 3D7), UniProt Q8IBS5); test: MMV: CDPK4 Protein kinase inhibition assay using recombinant PfCDPK4, syntide2 peptide substrate, ATP and KinaseGlo to measure % inhibition at 1 uM MMV box compound.
T4 sequence (Q8IBS5 whole entry): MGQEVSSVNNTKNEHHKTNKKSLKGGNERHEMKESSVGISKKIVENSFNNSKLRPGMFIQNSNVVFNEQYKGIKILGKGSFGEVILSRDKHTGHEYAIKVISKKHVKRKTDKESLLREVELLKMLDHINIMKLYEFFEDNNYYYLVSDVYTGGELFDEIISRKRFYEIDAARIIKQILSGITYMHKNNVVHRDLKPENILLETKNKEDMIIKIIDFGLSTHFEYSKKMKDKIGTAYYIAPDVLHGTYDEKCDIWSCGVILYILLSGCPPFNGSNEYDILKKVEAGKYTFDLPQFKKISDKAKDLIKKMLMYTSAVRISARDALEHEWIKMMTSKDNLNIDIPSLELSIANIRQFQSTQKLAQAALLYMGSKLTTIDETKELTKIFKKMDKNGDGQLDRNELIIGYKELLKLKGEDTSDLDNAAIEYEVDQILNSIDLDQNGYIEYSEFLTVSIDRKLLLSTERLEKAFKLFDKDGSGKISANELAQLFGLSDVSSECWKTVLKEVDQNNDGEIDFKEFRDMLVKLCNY

[6] = target: T5, Proline--tRNA ligase (Plasmodium falciparum (isolate 3D7), UniProt Q8I5R7); test: MMV: ProRS recombinant Plasmodium falciparum Prolyl-tRNA-synthetase, assay with yeast tRNA, ATP, and proline and 3 uM MMV malaria box compound, assay read out with kinase glo as % inhibition.
T5 sequence (Q8I5R7 whole entry): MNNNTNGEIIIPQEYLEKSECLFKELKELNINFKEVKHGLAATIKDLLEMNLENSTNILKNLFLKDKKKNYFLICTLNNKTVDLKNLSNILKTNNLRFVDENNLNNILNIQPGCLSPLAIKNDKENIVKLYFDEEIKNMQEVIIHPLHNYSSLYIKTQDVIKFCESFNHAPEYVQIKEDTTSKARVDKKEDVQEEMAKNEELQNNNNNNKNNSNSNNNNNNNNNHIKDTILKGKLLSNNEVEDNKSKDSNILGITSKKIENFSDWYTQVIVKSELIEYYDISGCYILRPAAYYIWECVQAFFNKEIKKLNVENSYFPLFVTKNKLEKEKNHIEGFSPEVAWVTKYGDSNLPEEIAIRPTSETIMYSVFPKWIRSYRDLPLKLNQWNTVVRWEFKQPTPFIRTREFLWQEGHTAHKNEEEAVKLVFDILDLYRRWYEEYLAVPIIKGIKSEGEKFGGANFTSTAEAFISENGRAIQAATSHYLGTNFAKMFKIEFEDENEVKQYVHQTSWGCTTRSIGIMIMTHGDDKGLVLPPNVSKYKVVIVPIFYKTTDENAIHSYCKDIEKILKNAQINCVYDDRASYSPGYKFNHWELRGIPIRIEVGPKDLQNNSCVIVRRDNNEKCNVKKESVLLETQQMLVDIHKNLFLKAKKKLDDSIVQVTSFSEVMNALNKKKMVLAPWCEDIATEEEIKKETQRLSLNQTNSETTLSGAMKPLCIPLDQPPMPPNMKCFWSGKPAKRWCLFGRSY

[7] = target: Lysine--tRNA ligase (Plasmodium falciparum (isolate 3D7), UniProt Q8IDJ8); test: MMV: KRS recombinant Plasmodium falciparum Lysyl-tRNA-synthetase, assay with yeast tRNA, ATP, and lysine and 3 uM MMV malaria box compound, assay read out with kinase glo as % inhibition.
Lysine--tRNA ligase, sequence (Q8IDJ8 whole entry): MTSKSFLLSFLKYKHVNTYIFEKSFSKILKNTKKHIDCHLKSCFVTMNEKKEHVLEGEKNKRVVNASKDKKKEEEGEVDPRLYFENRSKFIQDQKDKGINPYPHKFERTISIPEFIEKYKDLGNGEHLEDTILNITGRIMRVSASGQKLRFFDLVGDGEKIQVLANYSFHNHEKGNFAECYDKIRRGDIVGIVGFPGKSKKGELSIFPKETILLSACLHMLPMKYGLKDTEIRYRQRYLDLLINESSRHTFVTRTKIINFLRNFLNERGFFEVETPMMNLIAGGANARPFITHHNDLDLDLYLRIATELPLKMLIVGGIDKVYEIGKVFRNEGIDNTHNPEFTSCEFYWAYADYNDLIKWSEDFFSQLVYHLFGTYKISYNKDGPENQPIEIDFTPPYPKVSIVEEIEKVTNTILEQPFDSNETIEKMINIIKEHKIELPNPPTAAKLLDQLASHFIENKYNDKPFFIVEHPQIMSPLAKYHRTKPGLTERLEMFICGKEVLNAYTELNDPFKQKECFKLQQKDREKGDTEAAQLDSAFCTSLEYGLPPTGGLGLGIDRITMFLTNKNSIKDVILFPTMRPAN

| SMILES | IC50 [1] [nM] | IC50 [2] [nM] | IC50 [3] [nM] | IC50 [4] [nM] | IC50 [5] [nM] | IC50 [6] [nM] | IC50 [7] [nM] |
| --- | --- | --- | --- | --- | --- | --- | --- |
| COc1cccc(Cn2c(Oc3ccccc3)nc3c2c(=O)n(C)c(=O)n3C)c1 | > 1000 | > 1000 | > 1000 | > 1000 | > 1000 | > 2500 | > 2500 |
| CCOc1ccccc1CN1CCc2nc3cc(C(C)(C)C)nn3c(O)c2C1 | > 1000 | > 1000 | > 1000 | > 1000 | > 1000 | > 2500 | > 2500 |
| Cc1cc(N2CCCC2)nc(Nc2ccc(NC(=O)CCc3ccccc3)cc2)n1 | > 1000 | > 1000 | > 1000 | > 1000 | > 1000 | > 2500 | > 2500 |
| CN1CCN(c2ncnc3c2[nH]c2ccc(Cl)cc23)CC1 | > 1000 | > 1000 | > 1000 | > 1000 | > 1000 | > 2500 | > 2500 |
| CN(C)CCNc1cc(-c2ccccc2)nc2ccccc12 | > 1000 | > 1000 | > 1000 | > 1000 | > 1000 | > 2500 | > 2500 |
| COc1ccc2nc(C)cc(Nc3cccc(O)c3)c2c1 | > 1000 | > 1000 | > 1000 | > 1000 | > 1000 | > 2500 | > 2500 |
| CN(C)CCCNCc1ccc(-c2ccc(F)c(Cl)c2)o1 | > 1000 | > 1000 | > 1000 | > 1000 | > 1000 | > 2500 | > 2500 |
| O=c1nc(C=Cc2ccc(Br)cc2)oc2ccccc12 | > 1000 | > 1000 | > 1000 | > 1000 | 700 | > 2500 | > 2500 |
| COc1ccc2nc(N)nc(C)c2c1 | > 1000 | > 1000 | > 1000 | > 1000 | > 1000 | > 2500 | > 2500 |
| COc1ccc(C(=O)NC(c2ccc(Cl)cc2Cl)c2cc(Cl)c3cccnc3c2O)cc1 (centres undefined) | > 1000 | > 1000 | > 1000 | > 1000 | > 1000 | > 2500 | > 2500 |
| CCC(=O)Nc1nnc(Cc2ccc(OC)c(OC)c2)s1 | > 1000 | > 1000 | > 1000 | > 1000 | > 1000 | > 2500 | > 2500 |
| COc1cccc(C(=O)Nc2ccc(-c3nc4ccccc4[nH]3)cc2)c1 | > 1000 | > 1000 | > 1000 | > 1000 | > 1000 | > 2500 | > 2500 |
| CCOc1ccccc1NC(=O)CN1CCN(C(=O)c2ccco2)CC1 | > 1000 | > 1000 | > 1000 | > 1000 | > 1000 | > 2500 | > 2500 |
| CCOc1cc2c(cc1OCC)C(c1cc(Cl)c(O)c(OCC)c1)NCC2 (centres undefined) | > 1000 | > 1000 | > 1000 | > 1000 | > 1000 | > 2500 | > 2500 |
| COc1ccc(N2CCN(C(CNC(=O)CC(C)(C)C)c3ccc4c(c3)OCO4)CC2)cc1 (centres undefined) | > 1000 | > 1000 | > 1000 | > 1000 | > 1000 | > 2500 | > 2500 |
| COc1ccc(CN2CCN(Cc3ccccc3)CC2)c(O)c1 | > 1000 | > 1000 | > 1000 | > 1000 | > 1000 | > 2500 | > 2500 |
| Oc1c(CN2CCN(c3ccccc3F)CC2)cc(Br)c2cccnc12 | > 1000 | > 1000 | > 1000 | > 1000 | > 1000 | > 2500 | > 2500 |
| OC(CNCc1ccccc1)Cn1c2ccccc2c2ccccc21 (centres undefined) | > 1000 | > 1000 | > 1000 | > 1000 | > 1000 | > 2500 | > 2500 |
| Clc1ccc2c(N3CCCC3)ccnc2c1 | > 1000 | > 1000 | > 1000 | > 1000 | > 1000 | > 2500 | > 2500 |
| COc1ccc(C(=O)C2CC2c2ccc(Cl)cc2)cc1 (centres undefined) | > 1000 | > 1000 | > 1000 | > 1000 | > 1000 | > 2500 | > 2500 |
| O=c1c2c([nH]c3ccccc13)CCCC2 | > 1000 | > 1000 | > 1000 | > 1000 | > 1000 | > 2500 | > 2500 |
| CCCCN(CCCC)S(=O)(=O)c1ccc(NC(=O)c2ccco2)cc1 | > 1000 | > 1000 | > 1000 | > 1000 | > 1000 | > 2500 | > 2500 |
